Where “and” joins values, the source holds several entries; their conditions need not be identical. Identical values can stand only once. Toxic doses and inconclusive results are not listed. How the source made its calls: active means survival T/C of 150% or more; inactive means T/C below 125% in these data.
Tested on: CD2F1 mice, L1210 leukemia ip, survival T/C
Assay: NCI In Vivo Anticancer Drug Screen. Data for tumor model L1210 Leukemia (intraperitoneal) in CD2F1 (CDF1) mice
Details: higher = longer survival
Summary of the method: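 Transplantable tumor in mice; compound-treated vs vehicle-treated groups. Read-out = treated/control ratio of the measured endpoint.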

[1] = endpoint: mean survival time, dose: 100.0 mg/kg/injection, schedule: Q04DX003 (ip), vehicle: saline with Tween-80
[2] = endpoint: mean survival time, dose: 200.0 mg/kg/injection, schedule: Q04DX003 (ip), vehicle: saline with Tween-80
[3] = endpoint: mean survival time, dose: 400.0 mg/kg/injection, schedule: Q04DX003 (ip), vehicle: saline with Tween-80
[4] = endpoint: mean survival time, dose: 100.0 mg/kg/injection, schedule: Q04DX002 (ip), vehicle: saline with Tween-80
[5] = endpoint: mean survival time, dose: 200.0 mg/kg/injection, schedule: Q04DX002 (ip), vehicle: saline with Tween-80
[6] = endpoint: mean survival time, dose: 400.0 mg/kg/injection, schedule: Q04DX002 (ip), vehicle: saline with Tween-80
[7] = endpoint: mean survival time, dose: 100.0 mg/kg/injection, schedule: Q01DX001 (ip), vehicle: saline with Tween-80
[8] = endpoint: mean survival time, dose: 200.0 mg/kg/injection, schedule: Q01DX001 (ip), vehicle: saline with Tween-80
[9] = endpoint: mean survival time, dose: 400.0 mg/kg/injection, schedule: Q01DX001 (ip), vehicle: saline with Tween-80

Measured: T/C

CC(O)C1OC(n2cnc3c(=O)[nH]cnc32)C(O)C1O (centres undefined)
inactive: endpoint: mean survival time, dose: 12.5 mg/kg/injection, schedule: Q01DX005 (ip), vehicle: distilled water + Tween-80 114 % of control | endpoint: mean survival time, dose: 25.0 mg/kg/injection, schedule: Q01DX005 (ip), vehicle: distilled water + Tween-80 112 % of control | endpoint: mean survival time, dose: 50.0 mg/kg/injection, schedule: Q01DX005 (ip), vehicle: distilled water + Tween-80 104 % of control | endpoint: mean survival time, dose: 100.0 mg/kg/injection, schedule: Q01DX005 (ip), vehicle: distilled water + Tween-80 102 % of control | endpoint: mean survival time, dose: 200.0 mg/kg/injection, schedule: Q01DX005 (ip), vehicle: distilled water + Tween-80 100 % of control | endpoint: median survival time, dose: 8.75 mg/kg/injection, schedule: Q01DX005 (ip), vehicle: distilled water + Tween-80 108 % of control | endpoint: median survival time, dose: 12.5 mg/kg/injection, schedule: Q01DX005 (ip), vehicle: water 97 % of control | endpoint: median survival time, dose: 17.5 mg/kg/injection, schedule: Q01DX005 (ip), vehicle: distilled water + Tween-80 108 % of control | endpoint: median survival time, dose: 25.0 mg/kg/injection, schedule: Q01DX005 (ip), vehicle: saline with Tween-80 98 % of control | endpoint: median survival time, dose: 25.0 mg/kg/injection, schedule: Q01DX005 (ip), vehicle: water 97 % of control | endpoint: median survival time, dose: 35.0 mg/kg/injection, schedule: Q01DX005 (ip), vehicle: distilled water + Tween-80 102 % of control | endpoint: median survival time, dose: 50.0 mg/kg/injection, schedule: Q01DX005 (ip), vehicle: saline with Tween-80 107 % of control | endpoint: median survival time, dose: 50.0 mg/kg/injection, schedule: Q01DX005 (ip), vehicle: water 109 % of control | endpoint: median survival time, dose: 70.0 mg/kg/injection, schedule: Q01DX005 (ip), vehicle: distilled water + Tween-80 97 % of control | endpoint: median survival time, dose: 100.0 mg/kg/injection, schedule: Q01DX005 (ip), vehicle: saline with Tween-80 98 % of control | endpoint: median survival time, dose: 100.0 mg/kg/injection, schedule: Q01DX005 (ip), vehicle: water 98 % of control | endpoint: median survival time, dose: 140.0 mg/kg/injection, schedule: Q01DX005 (ip), vehicle: distilled water + Tween-80 97 % of control | endpoint: median survival time, dose: 200.0 mg/kg/injection, schedule: Q01DX005 (ip), vehicle: saline with Tween-80 109 % of control | endpoint: median survival time, dose: 200.0 mg/kg/injection, schedule: Q01DX005 (ip), vehicle: water 102 % of control | endpoint: median survival time, dose: 400.0 mg/kg/injection, schedule: Q01DX005 (ip), vehicle: saline with Tween-80 101 % of control

Brc1ccc2c(c1)CCCC2
inactive: [1] 95 % of control | [2] 103 % of control | [3] 93 % of control

CSc1nc(C)cc(=O)[nH]1
inactive: [4] 94 % of control | [5] 97 % of control | [6] 90 % of control

CC(NC1CCCCC1)c1ccc(O)cc1O (centres undefined)
inactive: endpoint: mean survival time, dose: 75.0 mg/kg/injection, schedule: Q01DX001 (ip), vehicle: other 93 % of control | endpoint: mean survival time, dose: 150.0 mg/kg/injection, schedule: Q01DX001 (ip), vehicle: other 87 % of control

c1ccc(Cc2ccccc2-c2ccccc2)cc1
inactive: endpoint: mean survival time, dose: 100.0 mg/kg/injection, schedule: Q04DX003 (ip), vehicle: Klucel (hydroxypropylcellulose) (HPC) 89 % of control | endpoint: mean survival time, dose: 200.0 mg/kg/injection, schedule: Q04DX003 (ip), vehicle: Klucel (hydroxypropylcellulose) (HPC) 89 % of control | endpoint: mean survival time, dose: 400.0 mg/kg/injection, schedule: Q04DX003 (ip), vehicle: Klucel (hydroxypropylcellulose) (HPC) 93 % of control

CCOC(=O)C1C(=O)N(C)C(=O)N1c1ccccc1 (centres undefined)
inactive: endpoint: mean survival time, dose: 12.5 mg/kg/injection, schedule: Q01DX009 (ip), vehicle: other 98 % of control | endpoint: mean survival time, dose: 25.0 mg/kg/injection, schedule: Q01DX009 (ip), vehicle: other 90 % of control | endpoint: mean survival time, dose: 50.0 mg/kg/injection, schedule: Q01DX009 (ip), vehicle: other 87 % of control | endpoint: mean survival time, dose: 100.0 mg/kg/injection, schedule: Q01DX009 (ip), vehicle: other 93 % of control | endpoint: mean survival time, dose: 200.0 mg/kg/injection, schedule: Q01DX009 (ip), vehicle: other 87 % of control

Nc1ccc(-c2nc(N)[nH]c(=O)c2N)cc1
inactive: [7] 96 % of control | [8] 92 % of control | [9] 88 % of control

CN(N)c1nc(N)c(C#N)c(C#N)c1C#N
inactive: endpoint: mean survival time, dose: 50.0 mg/kg/injection, schedule: Q01DX001 (ip), vehicle: saline 97 % of control | endpoint: mean survival time, dose: 100.0 mg/kg/injection, schedule: Q01DX001 (ip), vehicle: saline 101 % of control | endpoint: mean survival time, dose: 200.0 mg/kg/injection, schedule: Q01DX001 (ip), vehicle: saline 101 % of control | endpoint: mean survival time, dose: 400.0 mg/kg/injection, schedule: Q01DX001 (ip), vehicle: saline 97 % of control

O=C1CCC(OC(=O)c2ccccc2)CCN1 (centres undefined)
inactive: endpoint: mean survival time, dose: 100.0 mg/kg/injection, schedule: Q01DX009 (ip), vehicle: saline with Tween-80 87 % of control | endpoint: mean survival time, dose: 200.0 mg/kg/injection, schedule: Q01DX009 (ip), vehicle: saline with Tween-80 98 % of control | endpoint: mean survival time, dose: 400.0 mg/kg/injection, schedule: Q01DX009 (ip), vehicle: saline with Tween-80 90 % of control

CCCCCCC(C)(O)CCCCCC
inactive: [7] 93 % of control | [8] 96 % of control | [9] 101 % of control

CN(C)N=Nc1ccc([N+](=O)[O-])cc1
inactive: endpoint: mean survival time, dose: 50.0 mg/kg/injection, schedule: Q01DX009 (ip), vehicle: Klucel (hydroxypropylcellulose) (HPC) 98 % of control | endpoint: mean survival time, dose: 79.0 mg/kg/injection, schedule: Q01DX009 (ip), vehicle: Klucel (hydroxypropylcellulose) (HPC) 102 % of control | endpoint: mean survival time, dose: 100.0 mg/kg/injection, schedule: Q01DX009 (ip), vehicle: Klucel (hydroxypropylcellulose) (HPC) 102 % of control | endpoint: mean survival time, dose: 118.0 mg/kg/injection, schedule: Q01DX009 (ip), vehicle: Klucel (hydroxypropylcellulose) (HPC) 108 % of control | endpoint: mean survival time, dose: 177.0 mg/kg/injection, schedule: Q01DX009 (ip), vehicle: Klucel (hydroxypropylcellulose) (HPC) 120 % of control | endpoint: mean survival time, dose: 200.0 mg/kg/injection, schedule: Q01DX009 (ip), vehicle: Klucel (hydroxypropylcellulose) (HPC) 108 % of control

Nc1ccc(CCc2ccccc2)cc1
inactive: endpoint: mean survival time, dose: 50.0 mg/kg/injection, schedule: Q04DX002 (ip), vehicle: saline with Tween-80 98 % of control and 105 % of control | endpoint: mean survival time, dose: 50.0 mg/kg/injection, schedule: Q04DX003 (ip), vehicle: saline with Tween-80 104 % of control | [1] 100 % of control and 101 % of control and 107 % of control | [2] 92 % of control and 104 % of control

CC(=O)Oc1ccc(N2C(=O)C3C(C2=O)C2c4ccccc4C3C3CCCCN32)cc1 (centres undefined) (tested in a mixture with another compound)
inactive: endpoint: mean survival time, dose: 25.0 mg/kg/injection, schedule: Q01DX009 (ip), vehicle: water 101 % of control | endpoint: mean survival time, dose: 50.0 mg/kg/injection, schedule: Q01DX009 (ip), vehicle: water 95 % of control | endpoint: mean survival time, dose: 100.0 mg/kg/injection, schedule: Q01DX009 (ip), vehicle: water 95 % of control | endpoint: mean survival time, dose: 200.0 mg/kg/injection, schedule: Q01DX009 (ip), vehicle: water 90 % of control

COc1cccc(CNc2ncnc3nc[nH]c23)c1
inactive: [1] 92 % of control | [2] 91 % of control | [3] 97 % of control

CCN1/C(=C\c2ccc3cc(C)ccc3[n+]2CC)[Se]c2ccccc21
inactive: endpoint: mean survival time, dose: 1.25 mg/kg/injection, schedule: Q01DX001 (ip), vehicle: other 105 % of control | endpoint: mean survival time, dose: 2.5 mg/kg/injection, schedule: Q01DX001 (ip), vehicle: other 101 % of control | endpoint: mean survival time, dose: 5.0 mg/kg/injection, schedule: Q01DX001 (ip), vehicle: other 106 % of control

Clc1ccccc1-c1nc2ccccc2s1
inactive: [7] 91 % of control | [1] 97 % of control | [8] 91 % of control | [2] 96 % of control | [9] 91 % of control | [3] 92 % of control

Cc1cccc(CN(C)C)n1
inactive: endpoint: mean survival time, dose: 100.0 mg/kg/injection, schedule: Q04DX002 (ip), vehicle: saline 105 % of control

COc1ccc(NC(=O)Oc2ccc(Cl)cc2C)cc1
inactive: [4] 91 % of control | [5] 94 % of control | [6] 91 % of control
